Key:
Assay type in all cases: cell-based
[1] = tested on: embryonic stem cells (hESC2); assay: Screening as DNA vectors in embryonic stem cells, flow cytometry; conditions: 75 ng plasmid DNA, 48 hours after transfection, flow cytometer
Description: (§1) Cell line: embryonic stem cells (hESC2, cultured according to reported methods: Stem Cells, 2005, 23, 544-549)
(§2) Medium: mTeSR1 (STEMCELL)
(§3) Mode of screening: cell transfection on 96-well plates
(§4) Detection (readout): percentage of the number of GFP fluorescent cells relative to the total number of cells. Lipofectamine Stem was used as the positive control.
Method: an 8-channel pipette was used for sample addition. The contents shown were for a single well of a 96-well flat plate.
1. Stem cells were cultured to 3-5×10^4 cells per well in a 96-well plate treated with matrigel.
2. The compound (0.01 mmol) prepared in Example 1 was dissolved in 1 mL of anhydrous ethanol. After ultrasonically dissolved, 10 μL of the resultant amino lipid solution in ethanol was taken and mixed with 5 μL of DOPE solution in ethanol ([…]). The obtained mixture was then added with 35 μL of 0.2 M sodium acetate buffer (pH 5.6), and vortexed at a constant rotating speed for 30 s. Then, 4 μL was taken from the obtained product and added to 46 μL of 0.02 M sodium acetate buffer (pH 5.6), and vortexed at a constant rotating speed for 30 s to form a liposome solution. 5 μL of this liposome solution was mixed with 75 ng of plasmid DNA (pSin-EGFP-IRES-Puro) dissolved in 5 μL of 0.02 M sodium acetate buffer, and allowed to stay at room temperature for 30 min to form a lipid/DNA transfection complex.
3. 10 μL of the lipid/DNA transfection complex was incubated at room temperature for 30 min, followed by addition of 90 μL mTeSR1 medium was added and mixing with a pipette. 100 μL of the mixture was added to separate wells of a 96-well culture plate and placed in an incubator containing 5% CO2 at 37° C.
4. 48 hours after transfection, the cells were digested with 0.05% Trypsin-EDTA. The cells were resuspended in a PBS buffer and filtered. The cell suspension was placed in a flow cytometer and the number of GFP-expressing cells in no less than 2000 cells was measured so as to obtain the absolute efficiency of cell transfection. The relative efficiency of cell transfection was obtained by comparing the cell transfection efficiency with the positive control Lipofectamine Stem.

cardiomyocytes [2] = assay: Screening as DNA vectors in cardiomyocytes; design: concentration or dose not given beside the values; conditions: method as Example 4
Experimental: Cell line: cardiomyocytes (obtained from induced differentiation of hESC according to reported methods: J. Mol. Cell. Cardiol. 2011, 51, 288-298)
(§5) Medium: DMEM supplemented with 10% fetal bovine serum (Invitrogen)
as §3
(§6) Detection (readout): percentage of the number of GFP fluorescent cells relative to the total number of cells (the total number of cells was determined using nucleus dye Hoechst). Lipofectamine Stem (Invitrogen) was used as the positive control, according to the manufacturer's instructions.
Method: the experimental method was basically the same with Example 4.

Hela cells [3] = assay: Transfection of Hela cell line, DNA vectors; conditions: 75 ng plasmid DNA, GFP cells / total cells
How it was run: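 Amino lipid/DOPE liposomes in sodium acetate pH 5.6 were complexed with 75 ng psin-EGFP-IRES-Puro plasmid for 30 min at room temperature, then mixed with 3-5×10^4 Hela cells in DMEM/10% FBS at 37° C. Hoechst stain after 20-24 h, imaging after a further 20-24 h. Efficiency = GFP-positive cells / total nuclei.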

MCF7 cells [4] = assay: Transfection of MCF7 cell line, DNA vectors; design: concentration or dose not given beside the values; conditions: plasmid DNA, GFP cells / total cells
How it was run: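 MCF7 cells in DMEM with fetal bovine serum were transfected in 96-well format. Read-out was the percentage of GFP-fluorescent cells among total cells counted by Hoechst nuclear stain. Lipofectamine2000 served as positive control.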

MCF7 cells [5] = assay: Transfection of MCF7 cell line, mRNA vectors; conditions: 50 ng EGFP mRNA per well
How it was run: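 MCF7 cells in DMEM with fetal bovine serum were transfected with 50 ng EGFP mRNA per well. Read-out was the percentage of GFP-positive cells among total Hoechst-stained nuclei, with Lipofectamine2000 as positive control.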

cardiomyocytes [6] = assay: Screening as mRNA vectors in cardiomyocytes; conditions: 50 ng EGFP mRNA per well
Experimental: Cell line: cardiomyocytes (obtained from induced differentiation of hESC according to reported methods: J Mol. Cell. Cardiol. 2011, 51, 288-298)
as §5, §3, §6
Method: the experimental method was basically the same with Example 4, and the mass of EGFP mRNA for transfection was 50 ng per well.

[7] = tested on: embryonic stem cells (hESC2); assay: Screening as mRNA vectors in embryonic stem cells; conditions: 50 ng EGFP mRNA per well
Experimental: as §1, §2
Mode of screening: cell transfection on 96-well plate
as §4
Method: the experimental method was basically the same with Example 10, and the mass of EGFP mRNA for transfection was 50 ng per well.

Hela cells [8] = assay: Transfection of Hela cell line, mRNA vectors; conditions: 50 ng EGFP mRNA per well
How it was run: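 HeLa cells in DMEM with 10% FBS transfected with 50 ng EGFP mRNA per well. Readout is percentage of GFP-positive cells among total cells counted by Hoechst nuclear stain; Lipofectamine2000 served as positive control.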

SMILES	Absolute DNA transfection efficiency in embryonic stem cells [1]	Absolute DNA transfection efficiency in cardiomyocytes (cardiomyocytes [2])	Absolute DNA transfection efficiency in Hela cells (Hela cells [3])	Absolute DNA transfection efficiency in MCF7 cells (MCF7 cells [4])	Absolute mRNA transfection efficiency in MCF7 cells (MCF7 cells [5])	Absolute mRNA transfection efficiency in cardiomyocytes (cardiomyocytes [6])	Absolute mRNA transfection efficiency in embryonic stem cells [7]	Absolute mRNA transfection efficiency in Hela cells (Hela cells [8])
CCCCCCCCCCCSc1nc(NCCN2CCCC2)nc(SCCCCCCCC)n1 [Compound S8S11D3]	0.7%	1.9%	3.3%	2.7%	20.4%	21.0%	21.4%	3.3%
CCCCCCCCCCCSc1nc(NCCCCCCCCC)nc(NCCCN(C)C)n1 [Compound S11N9D6]	1.0%	22.5%	20.3%	25.1%	32.6%	8.7%	0.7%	20.3%
CCCCCCCCCCCCNc1nc(NCCN2CCN(C)CC2)nc(SCCCCCCCCC)n1 [Compound S9N12D5]	2.5%	4.0%	24.1%	13.7%	16.6%	25.5%	10.5%	24.1%
CCCCCCCCCCCSc1nc(NCC2CCN(C)CC2)nc(SCCCCCCCC)n1 [Compound S8S11D10]	0.7%	1.4%	21.8%	37.2%	40.4%	20.8%	37.4%	21.8%
CCCCCCCCCCCSc1nc(NCCCN2CCN(C)CC2)nc(SCCCCCCCC)n1 [Compound S8S11D9]	1.0%	0.8%	6.8%	59.8%	34.9%	25.5%	18.1%	6.8%
CCCCCCCCCCCCNc1nc(NCC2CCN(C)CC2)nc(SCCCCCCCCC)n1 [Compound S9N12D10]	5.3%	3.6%	12.9%	31.7%	11.2%	40.6%	14.0%	12.9%
CCCCCCCCCCCSc1nc(NCCCN2CCOCC2)nc(SCCCCCCCC)n1 [Compound S8S11D8]	1.0%	2.2%	7.6%	12.3%	7.0%	0.7%	1.6%	7.6%
CCCCCCCCCCCNc1nc(NCCCN(C)C)nc(SCCCCCCCC)n1 [Compound S8N11D6]	0.2%	1.4%	50.1%	18.0%	6.7%	5.3%	1.9%	50.2%
CCCCCCCCCCCNc1nc(NCCCN2CCOCC2)nc(SCCCCCCCC)n1 [Compound S8N11D8]	0.7%	2.1%	6.8%	4.4%	0.1%	1.9%	1.0%	6.8%
CCCCCCCCCCCSc1nc(NCCCCCCCCC)nc(NCCN2CCCC2)n1 [Compound S11N9D3]	3.7%	0.3%	11.5%	13.6%	26.6%	8.3%	22.0%	11.5%
CCCCCCCCCCCNc1nc(NCCN2CCCC2)nc(SCCCCCCCCC)n1 [Compound S9N11D3]	0.4%	0.4%	21.8%	26.6%	7.9%	16.7%	1.7%	21.8%
CCCCCCCCCCCNc1nc(NCCN2CCCC2)nc(SCCCCCCCC)n1 [Compound S8N11D3]	0.2%	0.5%	26.2%	3.6%	8.0%	6.2%	2.4%	26.2%
CCCCCCCCCCCCSc1nc(NCCCN2CCN(C)CC2)nc(SCCCCCCCC)n1 [Compound S8S12D9]	2.9%	1.0%	1.7%	13.1%	5.3%	14.0%	16.3%	1.7%
CCCCCCCCCCCNc1nc(NCCN2CCN(C)CC2)nc(SCCCCCCCC)n1 [Compound S8N11D5]	1.1%	3.0%	26.5%	16.7%	9.1%	3.7%	1.6%	26.5%
